# Assay results taken from patent publication US8993585B2, “Cyclic amine substituted pyrimidinediamines as PKC inhibitors” (Rigel Pharmaceuticals, Inc., priority 2007, dated 2015).
# Tested on: Human primary T cells
# Experiment: IL-2 ELISA, Human Primary T Cell, Anti-CD3+CD28+ (Example 3)
# Type: cell-based
# Details: anti-CD3+CD28 stimulation
# In short: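 Human primary T cells, 100,000 per well, were pre-incubated with compound in Yssel's medium for 1 h at 37 °C. The counter-assay used 0.5 ng/ml PMA with 0.1 uM ionomycin final.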
SMILES,IC50 (24 hours),"IC50 (Homo sapiens, T-cell, 24 h)"
COc1cc(Nc2ncc(Cl)c(NC3CC(C)(C)N(C)C(C)(C)C3)n2)ccc1NC(=O)c1ccco1 [Compound I-352],1070 nM,
COCCOc1cc(Nc2ncc(F)c(NC3CC(C)(C)NC(C)(C)C3)n2)cc(OCCOC)c1 [Compound I-394],2960 nM,
CN1C(C)(C)CC(Nc2nc(Nc3nc(-c4cccnc4)cs3)ncc2F)CC1(C)C [II-136],,910 nM
COc1cc(Nc2ncc(C#N)c(NC3CC(C)(C)NC(C)(C)C3)n2)cc(-n2cnnn2)c1 [Compound I-403],500 nM,
CN1CCN(c2ccc(Nc3ncc(F)c(NC4CC(C)(C)NC(C)(C)C4)n3)cc2Cl)CC1 [Compound I-256],246 nM,
CN1C(C)(C)CC(Nc2nc(Nc3ccc(Cl)c(C#N)c3)ncc2C(F)(F)F)CC1(C)C [Compound I-169],684 nM,
CN1C(C)(C)CC(Nc2nc(Nc3ccc(-n4cccc4)c(C#N)c3)ncc2C(F)(F)F)CC1(C)C [Compound I-172],669 nM,
"CCN(CC)C1CCC(Nc2nc(Nc3ccc(OC)c(Cl)c3)ncc2F)CC1 (centres unmarked) [IV-5, N2-(3-Chloro-4-methoxy)phenyl-N4-(4-diethylamino)cyclohexyl-5-fluoro-2,4-pyrimidinediamine]",,4610 nM
CN1CCN(Cc2ccc(Nc3ncc(F)c(NC4CC(C)(C)N(C)C(C)(C)C4)n3)cc2C(F)(F)F)CC1 [Compound I-52],133 nM,
CN1C(C)(C)CC(Nc2nc(Nc3nc(-c4ccc(NS(=O)(=O)c5ccc(Cl)cc5)cc4)cs3)ncc2F)CC1(C)C [II-142],,1030 nM
CC1(C)CC(Nc2nc(Nc3cccc(-n4cnnn4)c3)ncc2C#N)CC(C)(C)N1 [Compound I-393],430 nM,
CN1CCN(c2ccc(Nc3ncc(F)c(N(C)C4CC(C)(C)N(C)C(C)(C)C4)n3)cc2C(F)(F)F)CC1 [Compound I-59],911 nM,
Cc1cccc2sc(Nc3ncc(F)c(NC4CC(C)(C)N(C)C(C)(C)C4)n3)nc12 [II-19],,890 nM
CN1C(C)(C)CC(Nc2nc(Nc3nc(C#N)c(C#N)[nH]3)ncc2F)CC1(C)C [II-22],,37300 nM
Cc1cnc(Nc2ccc(N3CCN(C)CC3)c(C(F)(F)F)c2)nc1NC1CC(C)(C)N(C)C(C)(C)C1 [Compound I-30],335 nM,
COc1ccc(Nc2ncc(F)c(NC3CC(C)(C)N(C)C(C)(C)C3)n2)cc1OCc1cccnc1 [Compound I-418],2190 nM,
CN1C(C)(C)CC(Nc2nc(Nc3ccc(C(F)(F)F)c(C(F)(F)F)c3)ncc2F)CC1(C)C [Compound I-410],1440 nM,
CCCN1C(C)CN(c2cc(Nc3ncc(F)c(NC4CC(C)(C)N(C)C(C)(C)C4)n3)ccc2Cl)CC1C (centres unmarked) [Compound I-220],1050 nM,
"CN1C(C)(C)CC(Nc2nc(Nc3ccc(N4CCOCC4)c(C(F)(F)F)c3)ncc2F)C1(C)C (centres unmarked) [Compound I-287, 5-Fluoro-N2-[4-morpholino-3-(trifluoromethyl)]phenyl-N4-(1,2,2,5,5-pentamethylpyrrolidin-3-yl)-2,4-pyrimidinediamine]",2190 nM,
CN1C(C)(C)CC(Nc2nc(Nc3ccc(N4CCCC4)c(OC(F)F)c3)ncc2F)CC1(C)C [Compound I-237],887 nM,
CC(C)N1C(=O)C(C)(C)S(=O)(=O)c2cc(Nc3ncc(F)c(NC4CC(C)(C)N(C)C(C)(C)C4)n3)ccc21 [II-67],811 nM,
CN1C(=O)C(C)(C)Sc2cc(Nc3ncc(F)c(NC4CC(C)(C)N(C)C(C)(C)C4)n3)ccc21 [II-62],,38.3 nM
COc1ccc(Nc2ncc(F)c(NC3CC(C)(C)N(C)C(C)(C)C3)n2)cc1OC(F)(F)F [Compound I-343],315 nM,

SMILES,IC50 (24 hours),"IC50 (Homo sapiens, T-cell, 24 h)"
CN1C(C)(C)CC(Nc2nc(Nc3ccc(C(=O)NCCc4ccccn4)c(Cl)c3)ncc2F)CC1(C)C [Compound I-362],667 nM,
CN1C(C)(C)CC(Nc2nc(Nc3ccc(Br)cc3)ncc2F)CC1(C)C [Compound I-108],1150 nM,
CC1CN(c2ccc(Nc3ncc(F)c(NC4CC(C)(C)N(C)C(C)(C)C4)n3)cc2C(F)(F)F)CC(C)O1 (centres unmarked) [Compound I-225],755 nM,
CN1C(C)(C)CC(Nc2nc(Nc3ccc(OC(F)(F)F)c(Br)c3)ncc2F)CC1(C)C [Compound I-177],764 nM,
Cc1ccc(Nc2ncc(F)c(N(Cc3ccc4ccccc4n3)C3CC(C)(C)N(C)C(C)(C)C3)n2)cc1C#N [Compound I-320],,6140 nM
CN1C(C)(C)CC(Nc2nc(Nc3nc(-c4ccc(N5CCCC5)cc4)cs3)ncc2F)CC1(C)C [II-133],,2220 nM
CC1(C)CC(Nc2nc(Nc3ccc4c(c3)OC3(CCCC3)O4)ncc2F)CC(C)(C)N1 [II-120],,1350 nM
Cc1ccc(Nc2ncc(F)c(N(Cc3ccc4ccccc4c3)C3CC(C)(C)N(C)C(C)(C)C3)n2)cc1C#N [Compound I-315],,3390 nM
COc1cc(Nc2ncc(C(F)(F)F)c(NC3CC(C)(C)N(C)C(C)(C)C3)n2)cc(-n2nnnc2C)c1 [Compound I-370],93.2 nM,
CN1C(C)(C)CC(Nc2nc(Nc3cccc(OC(F)(F)F)c3)ncc2C(F)(F)F)CC1(C)C [Compound I-242],,8190 nM
CC1(C)CC(Nc2nc(Nc3cccc(-n4cnnn4)c3)ncc2F)CC(C)(C)N1 [Compound I-391],220 nM,
CN1C(C)(C)CC(Nc2nc(Nc3ccc4c(c3)oc(=O)n4C)ncc2F)CC1(C)C [II-36],,678 nM
CN1CCN(c2ncc(Nc3ncc(F)c(NC4CC(C)(C)N(C)C(C)(C)C4)n3)cc2Cl)CC1 [Compound I-288],374 nM,
COC(=O)CCN1C(C)(C)CC(Nc2nc(Nc3ccc(OC)c(Cl)c3)ncc2F)CC1(C)C [Compound I-293],,2190 nM
CN1CCN(c2ccc(Nc3ncc(F)c(NC4CC(C)(C)N(C)C(C)(C)C4)n3)cc2CO)CC1 [Compound I-63],1850 nM,
"CN1C(C)(C)CC(Nc2nc(Nc3cccc(OC(F)(F)F)c3)ncc2F)C1(C)C (centres unmarked) [Compound I-284, 5-Fluoro-N2-(3-trifluoromethoxy)phenyl-N4-(1,2,2,5,5-pentamethylpyrrolidin-3-yl)-2,4-pyrimidinediamine]",3040 nM,
COc1cc(Nc2ncc(F)c(NC3CC(C)(C)NC(C)(C)C3)n2)cc(OC)c1 [Compound I-371],550 nM,
CC1(C)CC(Nc2nc(Nc3ccc4c(c3)oc(=O)n4CCN3CCOCC3)ncc2C#N)CC(C)(C)N1 [II-170],,15800 nM
CN1C(=O)C(F)(F)Oc2cc(Nc3ncc(F)c(NC4CC(C)(C)N(C)C(C)(C)C4)n3)cnc21 [II-26],,951 nM
CN1C(C)(C)CC(Nc2nc(Nc3ccc4[nH]ncc4c3)ncc2F)CC1(C)C [II-38],,827 nM
CN1C(C)(C)CC(Nc2nc(Nc3cc4c(cc3F)OC(F)(F)O4)ncc2F)CC1(C)C [II-176],,2140 nM
CN1C(C)(C)CC(Nc2nc(Nc3ccc(OC(F)(F)F)c(Cl)c3)ncc2F)CC1(C)C [Compound I-334],1010 nM,
CN1C(C)(C)CC(Nc2nc(Nc3cc(C(F)(F)F)c(Br)c(C(F)(F)F)c3)ncc2F)CC1(C)C [Compound I-117],1250 nM,

SMILES,IC50 (24 hours),"IC50 (Homo sapiens, T-cell, 24 h)"
CN1C(C)(C)CC(Nc2nc(Nc3cnc(N4CCN(S(C)(=O)=O)CC4)c(Cl)c3)ncc2F)CC1(C)C [Compound I-289],424 nM,
CN1C(C)(C)CC(Nc2nc(Nc3ccc(N4CCNCC4)c(Cl)c3)ncc2[N+](=O)[O-])CC1(C)C [Compound I-77],2590 nM,
"CN1C(C)(C)CC(Nc2nc(Nc3cc(Cl)cc(Cl)c3)ncc2F)C1(C)C (centres unmarked) [Compound I-279, 5-Fluoro-N2-(3,5-dichloro) phenyl-N4-(1,2,2,5,5-pentamethylpyrrolidin-3-yl)-2,4-pyrimidinediamine]",7440 nM,
Cc1ccc(Nc2ncc(C(F)(F)F)c(NC3CC(C)(C)N(C)C(C)(C)C3)n2)cc1C#N [Compound I-171],680 nM,
COc1ccc(Nc2ncc(F)c(N(Cc3ccc4ccccc4c3)C3CC(C)(C)N(C)C(C)(C)C3)n2)cc1OC(F)F [Compound I-316],,3440 nM
CC(C)N1CCc2cc(Nc3ncc(F)c(NC4CC(C)(C)N(C)C(C)(C)C4)n3)ccc21 [II-53],,4740 nM
COc1ccc(Nc2ncc(C)c(NC3CC(C)(C)N(C)C(C)(C)C3)n2)cc1Cl [Compound I-27],497 nM,
CN1C(=O)C(C)(C)S(=O)(=O)c2cc(Nc3ncc(F)c(NC4CC(C)(C)N(C)C(C)(C)C4)n3)ccc21 [II-64],849 nM,
CN1C(C)(C)CC(Nc2nc(Nc3cccc(-c4cnn(C)c4)c3)ncc2F)CC1(C)C [Compound I-143],1410 nM,
CN1CCN(c2ccc(Nc3ncc([N+](=O)[O-])c(NC4CC(C)(C)N(C)C(C)(C)C4)n3)cc2Cl)CC1 [Compound I-76],596 nM,
CN1CCN(C(=O)c2ccc(Nc3ncc(F)c(NC4CC(C)(C)N(C)C(C)(C)C4)n3)cc2C(F)(F)F)CC1 [Compound I-64],2600 nM,
CN1C(C)(C)CC(Nc2nc(Nc3cc4c(cc3F)OC(F)(F)C(F)(F)O4)ncc2F)CC1(C)C [II-123],,880 nM
CC(=O)N1C(C)(C)CC(Nc2nc(Nc3ccc(N4CCN(C)CC4)c(C(F)(F)F)c3)ncc2F)CC1(C)C [Compound I-219],20800 nM,
CCCN1C(=O)C(C)(C)Oc2cc(Nc3ncc(F)c(NC4CC(C)(C)N(C)C(C)(C)C4)n3)ccc21 [II-48],,263 nM
CC(C)n1c(=O)oc2cc(Nc3ncc(F)c(NC4CC(C)(C)N(C)C(C)(C)C4)n3)ccc21 [II-47],,229 nM
CN1C(C)(C)CC(Nc2nc(Nc3ccc(C#N)cc3)ncc2F)CC1(C)C [Compound I-25],4890 nM,
Cc1cnc(Nc2ccc(S(N)(=O)=O)cc2)nc1NC1CC(C)(C)N(C)C(C)(C)C1 [Compound I-13],7680 nM,
COc1ccc(Nc2ncc(F)c(NC3CC(C)(C)N(C)C(C)(C)C3)n2)cc1OCC(F)(F)F [Compound I-401],3160 nM,
CC1(C)CC(Nc2nc(Nc3cccc(-n4cnnn4)c3)ncc2C(N)=O)CC(C)(C)N1 [Compound I-392],4460 nM,
CN1CCN(c2cc(Nc3ncc(F)c(NC4CC(C)(C)N(C)C(C)(C)C4)n3)ccc2Cl)CC1 [Compound I-65],1980 nM,
Cc1ccc(Nc2ncc(F)c(N(Cc3ccc(-c4ccccc4C#N)cc3)C3CC(C)(C)N(C)C(C)(C)C3)n2)cc1C#N [Compound I-326],,3080 nM
CN1CCC(c2ccc(Nc3ncc(F)c(NC4CC(C)(C)N(C)C(C)(C)C4)n3)cc2)CC1 [Compound I-221],1270 nM,
